Source: publication PMC6337391 (Molecules, 2019)

How the values were obtained:
[1] = ABTS•+ decolorization assay
Method in brief: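 Compounds (10 mM DMSO stocks, diluted) added to ABTS•+ radical generated by potassium persulfate oxidation of ABTS. Decolorization followed as absorbance at room temperature, with Trolox as standard.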

[2] = tested on: L929 mouse fibroblasts cells; test: Cytotoxicity, propidium iodide fluorescence method; format: cell-based; conditions: 24-h incubation
Method in brief: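 L929 cells in EMEM with 10% horse serum were allowed to attach for 24 h, then exposed to 1, 10, 20, 50 and 100 μM compound for 24 h at 37 °C. Cells were detached, stained with propidium iodide, and cell death was measured by flow cytometry.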

[3] = target: acetyl-cholinesterase (AChE) (Electrophorus electricus, UniProt O42275); format: biochemical
Chain of acetyl-cholinesterase (AChE) (O42275 24-633): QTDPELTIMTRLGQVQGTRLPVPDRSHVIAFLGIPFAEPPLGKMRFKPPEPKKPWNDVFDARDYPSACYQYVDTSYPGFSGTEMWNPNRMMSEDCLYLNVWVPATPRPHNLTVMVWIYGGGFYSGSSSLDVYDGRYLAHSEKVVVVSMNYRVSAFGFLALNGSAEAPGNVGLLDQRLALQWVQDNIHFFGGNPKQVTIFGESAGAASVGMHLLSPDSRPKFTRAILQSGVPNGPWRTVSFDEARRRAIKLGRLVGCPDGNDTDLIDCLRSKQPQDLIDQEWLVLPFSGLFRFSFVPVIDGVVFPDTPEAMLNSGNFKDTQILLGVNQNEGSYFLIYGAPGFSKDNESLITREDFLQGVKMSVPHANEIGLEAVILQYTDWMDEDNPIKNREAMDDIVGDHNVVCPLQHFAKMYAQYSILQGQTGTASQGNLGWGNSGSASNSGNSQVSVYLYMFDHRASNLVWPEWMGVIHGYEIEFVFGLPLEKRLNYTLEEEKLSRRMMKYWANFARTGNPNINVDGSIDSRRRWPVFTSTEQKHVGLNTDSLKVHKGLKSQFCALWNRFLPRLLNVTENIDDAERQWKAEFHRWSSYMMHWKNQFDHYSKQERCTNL
Method: We investigated, in vitro, the inhibitory activity of a, b, c, and e derivatives on acetylcholinesterase activity using acetylthiocholine as a substrate [29].
A modified procedure which was followed in our previous publication was performed [29]. A stock solution (10 mM) of the compounds diluted in DMSO was used (final concentration 100 µM).

[4] = Inhibition of linoleic acid lipid peroxidation (AAPH)
Method in brief: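 Sodium linoleate oxidation was initiated by AAPH in 0.05 M phosphate buffer, pH 7.4, at 37 °C, with test compound present and DMSO as blank. Conjugated diene hydroperoxide formation was followed as the absorbance increase at 234 nm.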

[5] = Lipophilicity as RM values by RP-TLC; format: physicochemical; parameters: key: RM = log[(1/Rf) − 1]; conditions: methanol/water 70/30, SD < 10%
Method in brief: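 Reversed-phase TLC on silica gel plates impregnated with 5% (v/v) liquid paraffin, methanol/water 70/30 (v/v) mobile phase, saturated tanks at 24 °C, UV detection. RM = log[(1/Rf) − 1] from five Rf measurements.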

soybean lipoxygenase = target: T1, soybean lipoxygenase (Glycine max, UniProt P08170); test: biochemical; format: biochemical; conditions: soybean LOX
T1 sequence (P08170 1-839): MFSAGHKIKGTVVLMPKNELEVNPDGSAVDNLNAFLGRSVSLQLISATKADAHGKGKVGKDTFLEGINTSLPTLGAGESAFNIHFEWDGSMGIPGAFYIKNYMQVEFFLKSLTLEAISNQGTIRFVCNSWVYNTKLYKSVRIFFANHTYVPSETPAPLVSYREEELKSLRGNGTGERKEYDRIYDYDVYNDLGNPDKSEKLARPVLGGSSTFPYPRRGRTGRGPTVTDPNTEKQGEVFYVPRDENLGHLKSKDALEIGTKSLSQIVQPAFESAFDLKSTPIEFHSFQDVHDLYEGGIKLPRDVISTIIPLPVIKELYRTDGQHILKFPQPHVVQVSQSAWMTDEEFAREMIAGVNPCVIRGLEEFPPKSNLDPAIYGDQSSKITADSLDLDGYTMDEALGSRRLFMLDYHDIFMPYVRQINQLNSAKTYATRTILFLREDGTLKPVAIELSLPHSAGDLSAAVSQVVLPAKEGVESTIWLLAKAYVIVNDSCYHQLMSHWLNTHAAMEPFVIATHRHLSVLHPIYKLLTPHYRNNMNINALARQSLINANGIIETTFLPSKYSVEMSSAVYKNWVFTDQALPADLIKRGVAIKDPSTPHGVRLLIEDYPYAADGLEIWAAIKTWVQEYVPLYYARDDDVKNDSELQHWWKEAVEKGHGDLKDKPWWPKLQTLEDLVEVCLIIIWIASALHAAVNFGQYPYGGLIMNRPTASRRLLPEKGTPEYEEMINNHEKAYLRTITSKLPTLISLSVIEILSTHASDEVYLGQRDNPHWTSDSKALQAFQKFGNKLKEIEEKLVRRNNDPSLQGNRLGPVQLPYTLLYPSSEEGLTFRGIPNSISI
Method in brief: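 Soybean LOX (enzyme solution 1/9 × 10^−4 w/v in saline) incubated at room temperature with sodium linoleate ([…]) in tris buffer pH 9. Compounds added from DMSO stocks. IC50 derived from several concentrations.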

[6] = Reducing activity with the stable radical DPPH
Method in brief: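 DPPH (final 0.05 mM) in absolute ethanol mixed with an equal volume of compound at 0.05 or 0.1 mM, ethanol as control. Absorbance at 517 nm read at room temperature after 20 and 60 min, expressed as reducing activity RA%.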

Structure (SMILES): O=C(/C=C/c1c[nH]c2ccccc12)c1ccc(OCCCOc2ccc(C(=O)/C=C/c3c[nH]c4ccccc34)cc2)cc1 [c6, (2E,2′E)-1,1′-((propane-1,3-diylbis(oxy))bis(4,1-phenylene))bis(3-(1H-indol-3-yl)prop-2-en-1-one)]
- ABTS•+ Inhb. % @ 100 μM [1]: No
- 1 μM Average (% pi) ± σ ([2]; 1 μM): 1.12 ± 1.15%
- 10 μM Average (% pi) ± σ ([2]; 10 μM): 2.2 ± 1.66%
- 20 μM Average (% pi) ± σ ([2]; 20 μM): 1.16 ± 0.81%
- 50 μM Average (% pi) ± σ ([2]; 50 μM): 3.03 ± 0.02%
- 100 μM Average (% pi) ± σ ([2]; 100 μM): 3.03 ± 0.02%
- % AChE Inhb. @ 100 μM [3]: did not present any activity and Νο
- AAPH% @ 100 μM (anti-lipid peroxidation) [4]: 100%
- RM [5]: −0.97
- % LOX Inhb. @ 100 μM (soybean lipoxygenase; 100 μM): 98%
- IC50 (soybean lipoxygenase; read-out: LOX IC50): 54 µM
- RA% 100 μM 20 min ([6]; 20 min): No
- RA% 100 μM 60 min ([6]; 60 min): No
